Source: ChEMBL document CHEMBL1201862, “PubChem BioAssay data set” (2004)
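Step 1: Grow cells in 96-well plates. Step 2: Expose to compound for 48 hours at 5 concentrations. Step 3: Interpolate endpoints linearly; if unreached, use highest concentration. GI50: concentration for 50% inhibition of growth.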 Calls of active or inactive are those of the source. Rule as the data show it: active = GI50 up to about 1.1 µM and inactive = higher.

Tests used:
Assay in all cases: NCI tumour cell line growth inhibition, 48 h
786-0 = tested on: 786-0
A498 = tested on: A498
A549 = tested on: A549
ACHN = tested on: ACHN
BT-549 = tested on: BT-549
CAKI-1 = tested on: CAKI-1
CCRF-CEM = tested on: CCRF-CEM
COLO 205 = tested on: COLO 205
DU-145 = tested on: DU-145
EKVX = tested on: EKVX
HCC 2998 = tested on: HCC 2998
HCT-116 = tested on: HCT-116
HCT-15 = tested on: HCT-15
HL-60 = tested on: HL-60
HOP-62 = tested on: HOP-62
HOP-92 = tested on: HOP-92
HT-29 = tested on: HT-29
Hs-578T = tested on: Hs-578T
IGROV-1 = tested on: IGROV-1
K562 = tested on: K562
KM12 = tested on: KM12
LOX IMVI = tested on: LOX IMVI
M14 = tested on: M14
MCF7 = tested on: MCF7
MDA-MB-231 = tested on: MDA-MB-231
MDA-MB-435 = tested on: MDA-MB-435
MDA-N = tested on: MDA-N
MOLT-4 = tested on: MOLT-4
Malme-3M = tested on: Malme-3M
NCI-H226 = tested on: NCI-H226
NCI-H23 = tested on: NCI-H23
NCI-H460 = tested on: NCI-H460
NCI/ADR-RES = tested on: NCI/ADR-RES
OVCAR-3 = tested on: OVCAR-3
OVCAR-4 = tested on: OVCAR-4
OVCAR-5 = tested on: OVCAR-5
OVCAR-8 = tested on: OVCAR-8
PC-3 = tested on: PC-3
RPMI-8226 = tested on: RPMI-8226
RXF 393 = tested on: RXF 393
SF-268 = tested on: SF-268
SF-295 = tested on: SF-295
SF-539 = tested on: SF-539
SK-MEL-28 = tested on: SK-MEL-28
SK-MEL-2 = tested on: SK-MEL-2
SK-MEL-5 = tested on: SK-MEL-5
SK-OV-3 = tested on: SK-OV-3
SN12C = tested on: SN12C
SNB-19 = tested on: SNB-19
SNB-75 = tested on: SNB-75
SW-620 = tested on: SW-620
T47D = tested on: T47D
TK-10 = tested on: TK-10
U-251 = tested on: U-251
UACC-257 = tested on: UACC-257
UACC-62 = tested on: UACC-62
UO-31 = tested on: UO-31
NCI-H522 = tested on: NCI-H522

N[C@@H](Cc1ccccc1)C(=O)N1CCC[C@@H]1P(=O)(Oc1ccccc1)Oc1ccccc1
GI50 (786-0): > 100 µM (inactive) | GI50 (A498): > 100 µM (inactive) | GI50 (A549): > 100 µM (inactive) | GI50 (ACHN): > 100 µM (inactive) | GI50 (BT-549): > 100 µM (inactive) | GI50 (CAKI-1): > 100 µM (inactive) | GI50 (CCRF-CEM): > 100 µM (inactive) | GI50 (COLO 205): > 100 µM (inactive) | GI50 (DU-145): > 100 µM (inactive) | GI50 (EKVX): > 100 µM (inactive) | GI50 (HCC 2998): 39.3 µM (inactive) | GI50 (HCT-116): > 100 µM (inactive) | GI50 (HCT-15): > 100 µM | GI50 (HL-60): > 100 µM (inactive) | GI50 (HOP-62): > 100 µM (inactive) | GI50 (HOP-92): > 100 µM (inactive) | GI50 (HT-29): 86.3 µM (inactive) | GI50 (Hs-578T): > 100 µM (inactive) | GI50 (IGROV-1): > 100 µM (inactive) | GI50 (K562): 77.8 µM (inactive) | GI50 (KM12): > 100 µM (inactive) | GI50 (LOX IMVI): > 100 µM (inactive) | GI50 (M14): > 100 µM (inactive) | GI50 (MCF7): > 100 µM (inactive) | GI50 (MDA-MB-231): > 100 µM (inactive) | GI50 (MDA-MB-435): > 100 µM (inactive) | GI50 (MDA-N): > 100 µM (inactive) | GI50 (MOLT-4): 60.3 µM (inactive) | GI50 (Malme-3M): > 100 µM (inactive) | GI50 (NCI-H226): > 100 µM (inactive) | GI50 (NCI-H23): > 100 µM (inactive) | GI50 (NCI-H460): > 100 µM (inactive) | GI50 (NCI/ADR-RES): > 100 µM (inactive) | GI50 (OVCAR-3): > 100 µM (inactive) | GI50 (OVCAR-4): > 100 µM (inactive) | GI50 (OVCAR-5): > 100 µM (inactive) | GI50 (OVCAR-8): > 100 µM (inactive) | GI50 (PC-3): 33.6 µM (inactive) | GI50 (RPMI-8226): 96.4 µM (inactive) | GI50 (RXF 393): > 100 µM (inactive) | GI50 (SF-268): > 100 µM (inactive) | GI50 (SF-295): > 100 µM (inactive) | GI50 (SF-539): > 100 µM (inactive) | GI50 (SK-MEL-28): > 100 µM (inactive) | GI50 (SK-MEL-2): > 100 µM (inactive) | GI50 (SK-MEL-5): 78.2 µM (inactive) | GI50 (SK-OV-3): > 100 µM (inactive) | GI50 (SN12C): > 100 µM (inactive) | GI50 (SNB-19): > 100 µM (inactive) | GI50 (SNB-75): > 100 µM (inactive) | GI50 (SW-620): > 100 µM (inactive) | GI50 (T47D): > 100 µM (inactive) | GI50 (TK-10): > 100 µM (inactive) | GI50 (U-251): > 100 µM (inactive) | GI50 (UACC-257): > 100 µM (inactive) | GI50 (UACC-62): > 100 µM (inactive) | GI50 (UO-31): > 100 µM (inactive)

Oc1cc(-c2cccc(OC(F)(F)F)c2)nc2cc3c(cc12)OCO3
GI50 (786-0): 0.0902 µM (active) | GI50 (A498): 0.516 µM (active) | GI50 (A549): 0.182 µM (active) | GI50 (ACHN): > 32.7 µM (inactive) | GI50 (BT-549): 0.327 µM (active) | GI50 (CAKI-1): 0.0885 µM (active) | GI50 (CCRF-CEM): 0.0301 µM (active) | GI50 (COLO 205): 1.24 µM (inactive) | GI50 (DU-145): 0.0459 µM (active) | GI50 (EKVX): 0.643 µM (active) | GI50 (HCC 2998): 0.0631 µM (active) | GI50 (HCT-116): 0.0395 µM (active) | GI50 (HCT-15): 0.0475 µM | GI50 (HL-60): 0.0131 µM (active) | GI50 (HOP-62): 0.119 µM (active) | GI50 (HOP-92): 1.05 µM (active) | GI50 (HT-29): 1.96 µM (inactive) | GI50 (Hs-578T): 0.1 µM (active) | GI50 (IGROV-1): 0.355 µM (active) | GI50 (K562): 0.0275 µM (active) | GI50 (KM12): 0.0968 µM (active) | GI50 (M14): 0.0867 µM (active) | GI50 (MCF7): 0.135 µM (active) | GI50 (MDA-MB-231): 0.144 µM (active) | GI50 (MDA-MB-435): < 0.0156 µM (active) | GI50 (MDA-N): 0.0143 µM (active) | GI50 (MOLT-4): 0.0371 µM (active) | GI50 (Malme-3M): 0.0435 µM (active) | GI50 (NCI-H226): 0.239 µM (active) | GI50 (NCI-H23): 0.12 µM (active) | GI50 (NCI-H460): 0.0877 µM (active) | GI50 (NCI-H522): 0.0441 µM (active) | GI50 (NCI/ADR-RES): 0.0334 µM (active) | GI50 (OVCAR-3): 0.0547 µM (active) | GI50 (OVCAR-4): 1.19 µM (inactive) | GI50 (OVCAR-8): 0.155 µM (active) | GI50 (PC-3): 0.0366 µM (active) | GI50 (RPMI-8226): 0.0508 µM (active) | GI50 (RXF 393): 0.166 µM (active) | GI50 (SF-268): 2.72 µM (inactive) | GI50 (SF-295): 0.0845 µM (active) | GI50 (SF-539): 0.084 µM (active) | GI50 (SK-MEL-28): 0.323 µM (active) | GI50 (SK-MEL-2): 0.169 µM (active) | GI50 (SK-MEL-5): 0.0508 µM (active) | GI50 (SK-OV-3): 0.282 µM (active) | GI50 (SN12C): 0.169 µM (active) | GI50 (SNB-19): 0.0938 µM (active) | GI50 (SNB-75): 0.568 µM (active) | GI50 (SW-620): 0.0883 µM (active) | GI50 (T47D): 55.7 µM (inactive) | GI50 (TK-10): 5.19 µM (inactive) | GI50 (U-251): 0.0658 µM (active) | GI50 (UACC-257): 1.68 µM (inactive) | GI50 (UACC-62): 0.123 µM (active) | GI50 (UO-31): 0.174 µM (active)
